Results from patent US20100075370A1, “METHOD FOR DETERMINATION OF CELL VIABILITY BY USING FLOW CYTOMETRY WITH FIXED VOLUME ACQUISITION” (TUMORTEC GMBH, priority 2006, published 2010).

Tests used:
[1] = system: pBMC from patients with CLL; assay: Cytotoxicity of several antineoplastic agents on pBMC (LC90), fixed volume flow cytometry; type: cell-based, human; conditions: in µg/mL
From the text: The necessary peripheral blood (PB) samples from adult patients diagnosed with chronic lymphatic leukaemia (CLL) were collected into heparin during routine diagnosis prior to administration of chemotherapy.

[2] = system: patient samples (pBMC from CLL patients); assay: Cytotoxicity assay of example 1 (new method), chemosensitivity index Ci; type: cell-based, human
Experimental: (2) A more complex standardization is the calculation of an index. In case of the chemosensitivity testing it is not a single value that has to be standardized. The chemosensitivity towards a drug is tested with several concentrations of the drug in parallel in a cell culture assay. […] This method was adopted for the present invention from the analysis of DiSC assays (Staib et al., British Journal of Haematology, 2005, 128, 783-791). The Chemosensitivity Index Ci was designed as a prognostic index for ex vivo chemosensitivity assays. Assay results were expressed as percent tumor cell survival (% TCS). The dose-response curve as a function of the dose-response relationship may be mathematically described by a […] regression model (FIG. 4). The dose-response curve was defined as CS=c1*e^conc*c2 % with cell survival (CS), drug concentration (conc) and the constants c1 and c2. c1 represented the y-axis distance and c2 the slope of the curve. The area under the curve (AUC) as an exact measure for the total dose response relation was defined as AUC=−e^c1/c2, on condition that c2 is less than 0, otherwise AUC is infinite. The chemosensitivity index, Ci, was set up as Ci=e^−AUC*c with a domain between 0 and 1. The drug-specific constant c was used for adjusting the Ci-value of 0.5 as the cut-off point between resistance and sensitivity. The constant c was defined as
with AUCcut-off as the smallest AUC value among all clinical non-responding patients of the training data set. Obviously, all cytotoxic agents given for treatment were ineffective in these patients. The cut-off Ci value must be adjusted to 0.5 for prognosis of the effect of the drug on a patient in vivo when the drug is tested on said patient's cells in vitro using the method of the present invention. Ci values of 0-0.5 indicated resistance and values above 0.5 predicted sensitivity against the drug tested.
Peripheral blood mononuclear cells (pBMC) from a patient with chronic lymphatic leukaemia were isolated from the PB samples as described before (Staib, P. et al., Br. J. Haematol., 128(6):783-91 (2005)), resuspended in RPMI 1640 medium (Biochrom, Berlin, Germany) containing 20 vol. % fetal calf serum (FCS; Biochrom, Berlin, Germany) and added into the precoated 96-well plate with a final cell concentration of 10,000 cells/well and a volume of 100 μl. The plates were then agitated for 15 min in order to solubilize the dried fludarabine phosphate. Subsequently, the plates were incubated for 96 h (37° C., 5% CO2, humidified atmosphere). Thereafter, 50 μl of an 11 μM propidium iodide (PI)-solution in 0.9% aqueous NaCl solution (NaCl 0.9%) (Invitrogen, Leiden, Netherlands) were added and incubated for 15 min at room temperature. PI is a standard flow cytometric viability probe and is used to distinguish viable from nonviable cells. Viable cells with intact membranes exclude PI, whereas the membranes of dead and damaged cells are permeable to PI. PI only stains cells with compromised cell membrane, whilst live cells which have intact membranes are not stained by PI.
The chemosensitivity index Ci based on the DiSC assay as described in Staib, P. et al., Br. J. Haematol., 128(6):783-91 (2005) is known to have a very high accuracy of prediction (98%) for the clinical outcome of a particular chemotherapy (Staib, P. et al., Br. J. Haematol., 128(6):783-91 (2005)). In order to evaluate the accuracy of the cytotoxicity assay as described in example 1 (“new method”), the Ci determination was performed for assay results of patient samples analyzed with the traditional DiSC assay and—in parallel—with the new assay method described in example 1. In total, 22 patient samples were analyzed. Fludara® was used in both assays. The cytotoxicity assay of example 1 was performed as described therein, and the DiSC assay was performed as described in Staib, P. et al., Br. J. Haematol., 128(6):783-91 (2005).

## Nc1nc(F)nc2c1ncn2[C@@H]1O[C@H](COP(=O)(O)O)[C@@H](O)[C@@H]1O [Fludarabine phosphate, 2-Fluoro-9-(5-O-phosphono-β-D-arabinofuranosyl)-9H-purin-6-amine]
[1]; pBMC of CLL patient #1, ex vivo
  LC90: 69.69
[1]; pBMC of CLL patient #2, ex vivo
  LC90: 11.74
[1]; pBMC of CLL patient #3, ex vivo
  LC90: 0.09
[1]; pBMC of CLL patient #4, ex vivo
  LC90: 26.00
[1]; pBMC of CLL patient #5, ex vivo
  LC90: 0.46
[1]; pBMC of CLL patient #6, ex vivo
  LC90: 18.17
[1]; pBMC of CLL patient #7, ex vivo
  LC90: 13.25
[1]; pBMC of CLL patient #8, ex vivo
  LC90: 15.02
[1]; pBMC of CLL patient #9, ex vivo
  LC90: 0.94
[1]; pBMC of CLL patient #10, ex vivo
  LC90: 0.01
[1]; pBMC of CLL patient #11, ex vivo
  LC90: 2.15
[1]; pBMC of CLL patient #12, ex vivo
  LC90: 0.33
[1]; pBMC of CLL patient #13, ex vivo
  LC90: 0.82
[1]; pBMC of CLL patient #14, ex vivo
  LC90: 0.86
[1]; pBMC of CLL patient #15, ex vivo
  LC90: 0.58
[1]; pBMC of CLL patient #16, ex vivo
  LC90: 0.22
[1]; pBMC of CLL patient #17, ex vivo
  LC90: 0.55
[1]; pBMC of CLL patient #18, ex vivo
  LC90: 0.55
[1]; pBMC of CLL patient #19, ex vivo
  LC90: 0.50
[1]; pBMC of CLL patient #20, ex vivo
  LC90: 0.00
[1]; pBMC of CLL patient #21, ex vivo
  LC90: 0.11
[1]; pBMC of CLL patient #22, ex vivo
  LC90: 81.92
[1]; pBMC of CLL patient #23, ex vivo
  LC90: 0.01
[1]; pBMC of CLL patient #24, ex vivo
  LC90: 23.76
[1]; pBMC of CLL patient #25, ex vivo
  LC90: 35.21
[2]; of 22 patients
  patients DiSC-Assay resistant / New method sensitive: 0
  patients DiSC-Assay sensitive / New method resistant: 0
[2]; patient #1
  Ci (New Method): 0.99
  prediction (New Method): sensitive (values above 0.5 predicted sensitivity against the drug tested)
[2]; patient #2
  Ci (New Method): 0.94
  prediction (New Method): sensitive (values above 0.5 predicted sensitivity against the drug tested)
[2]; patient #3
  Ci (New Method): 0.99
  prediction (New Method): sensitive (values above 0.5 predicted sensitivity against the drug tested)
[2]; patient #4
  Ci (New Method): 0.89
  prediction (New Method): sensitive (values above 0.5 predicted sensitivity against the drug tested)
[2]; patient #5
  Ci (New Method): 0.93
  prediction (New Method): sensitive (values above 0.5 predicted sensitivity against the drug tested)
[2]; patient #6
  Ci (New Method): 0.79
  prediction (New Method): sensitive (values above 0.5 predicted sensitivity against the drug tested)
[2]; patient #7
  Ci (New Method): 0.74
  prediction (New Method): sensitive (values above 0.5 predicted sensitivity against the drug tested)
[2]; patient #8
  Ci (New Method): 0.83
  prediction (New Method): sensitive (values above 0.5 predicted sensitivity against the drug tested)
[2]; patient #9
  Ci (New Method): 0.65
  prediction (New Method): sensitive (values above 0.5 predicted sensitivity against the drug tested)
[2]; patient #10
  Ci (New Method): 0.74
  prediction (New Method): sensitive (values above 0.5 predicted sensitivity against the drug tested)
[2]; patient #11
  Ci (New Method): 0.60
  prediction (New Method): sensitive (values above 0.5 predicted sensitivity against the drug tested)
[2]; patient #12
  Ci (New Method): 0.81
  prediction (New Method): sensitive (values above 0.5 predicted sensitivity against the drug tested)
[2]; patient #13
  Ci (New Method): 0.65
  prediction (New Method): sensitive (values above 0.5 predicted sensitivity against the drug tested)
[2]; patient #14
  Ci (New Method): 0.63
  prediction (New Method): sensitive (values above 0.5 predicted sensitivity against the drug tested)
[2]; patient #15
  Ci (New Method): 0.71
  prediction (New Method): sensitive (values above 0.5 predicted sensitivity against the drug tested)
[2]; patient #16
  Ci (New Method): 0.35
  prediction (New Method): resistant (Ci values of 0-0.5 indicated resistance)
[2]; patient #17
  Ci (New Method): 0.41
  prediction (New Method): resistant (Ci values of 0-0.5 indicated resistance)
[2]; patient #18
  Ci (New Method): 0.35
  prediction (New Method): resistant (Ci values of 0-0.5 indicated resistance)
[2]; patient #19
  Ci (New Method): 0.24
  prediction (New Method): resistant (Ci values of 0-0.5 indicated resistance)
[2]; patient #20
  Ci (New Method): 0.36
  prediction (New Method): resistant (Ci values of 0-0.5 indicated resistance)
[2]; patient #21
  Ci (New Method): 0.41
  prediction (New Method): resistant (Ci values of 0-0.5 indicated resistance)
[2]; patient #22
  Ci (New Method): 0.24
  prediction (New Method): resistant (Ci values of 0-0.5 indicated resistance)
